# Test results as given in ChEMBL document CHEMBL1125519, “Thieno[2,3-b]furan-2-sulfonamides as topical carbonic anhydrase inhibitors” (J Med Chem, 1992).
# Test system: not listed separately
# Experiment: Solubility was evaluated at pH 7.4 buffer at 25 degree Centigrade
# Type: physicochemical
# Conditions: not given
row,Structure (SMILES),solubility
1,NS(=O)(=O)c1cc2cc(CNCc3ccccn3)sc2o1,16.9 mg/mL
2,CCOCCNCc1cc2cc(S(N)(=O)=O)oc2s1,19.7 mg/mL
3,NS(=O)(=O)c1cc2cc(CN3CCOCC3)sc2o1,0.97 mg/mL
4,COCCNCc1cc2cc(S(N)(=O)=O)oc2s1,> 27 mg/mL

# Test system: not listed separately
# Experiment: pKa in water
# Type: physicochemical
# Conditions: not given
row,Structure (SMILES),pKa
1,CCOCCNCc1cc2cc(S(N)(=O)=O)oc2s1,6.85
2,NS(=O)(=O)c1cc2cc(CN3CCOCC3)sc2o1,5.32
3,COCCNCc1cc2cc(S(N)(=O)=O)oc2s1,7

# Organism: Bos taurus
# Experiment: Percentage binding of bovine ocular pigment
# Type: functional, Eye
# Conditions: not given
row,Structure (SMILES),Binding
1,COCCN(CCOC)Cc1cc2cc(S(N)(=O)=O)oc2s1,26.9%
2,NS(=O)(=O)c1cc2cc(CN3CCOCC3)sc2o1,24.8%

# Organism: Bos taurus
# Experiment: Percentage binding to bovine iris and ciliary body
# Type: functional
# Conditions: not given
row,Structure (SMILES),Pigment binding
1,CNCc1cc2cc(S(N)(=O)=O)oc2s1,77%
2,COCCN(CCOC)Cc1cc2cc(S(N)(=O)=O)oc2s1,27%
3,CCOCCNCc1cc2cc(S(N)(=O)=O)oc2s1,75%
4,NS(=O)(=O)c1cc2cc(CN3CCOCC3)sc2o1,25%
5,CC(C)CNCc1cc2cc(S(N)(=O)=O)oc2s1,73%
6,COCCNCc1cc2cc(S(N)(=O)=O)oc2s1,73%
7,CCCNCc1cc2cc(S(N)(=O)=O)oc2s1,68%

# Organism: Oryctolagus cuniculus
# Experiment: Compound was evaluated for the lowering of the intraocular pressure (IOP) (2%, 3 drops) in ocular normotensive pigmented rabbits
# Type: functional, Eye
# Conditions: not given
row,Structure (SMILES),IOP lowering
1,COCCN(CCOC)Cc1cc2cc(S(N)(=O)=O)oc2s1,3.9 mmHg
2,NS(=O)(=O)c1cc2cc(CN3CCOCC3)sc2o1,2.5 mmHg

# Target: T1, Carbonic anhydrase 2 (Homo sapiens, UniProt P00918)
# Experiment: not given
# Conditions: not given
row,Structure (SMILES),IC50
1,NS(=O)(=O)c1cc2cc(CNCc3ccccn3)sc2o1,8.2 nM
2,CNCc1cc2cc(S(N)(=O)=O)oc2s1,9 nM
3,COCCN(CCOC)Cc1cc2cc(S(N)(=O)=O)oc2s1,5.1 nM
4,COCCOCCN(CCOC)Cc1cc2cc(S(N)(=O)=O)oc2s1,6.49 nM
5,NS(=O)(=O)c1cc2cc(CN3CCOCC3)sc2o1,5.6 nM
6,CC(C)CNCc1cc2cc(S(N)(=O)=O)oc2s1,6 nM
7,COCCCNCc1cc2cc(S(N)(=O)=O)oc2s1,12 nM
8,NS(=O)(=O)c1cc2cc(CNCCCCO)sc2o1,11 nM

# More lines, now with the values ahead:
row,IC50,Structure (SMILES)
1,12 nM,NS(=O)(=O)c1cc2cc(CNCCF)sc2o1
2,8 nM,CCOCCNCc1cc2cc(S(N)(=O)=O)oc2s1
3,11 nM,COCCNCc1cc2cc(S(N)(=O)=O)oc2s1
4,8 nM,CCCNCc1cc2cc(S(N)(=O)=O)oc2s1

# Target: T1, Carbonic anhydrase 2
# Experiment: not given
# Conditions: not given
# Remark: another data set of the same source
row,Structure (SMILES),Ki
1,NS(=O)(=O)c1cc2cc(CNCCF)sc2o1,3.4 nM
2,NS(=O)(=O)c1cc2cc(CNCc3ccccn3)sc2o1,8.2 nM
3,CNCc1cc2cc(S(N)(=O)=O)oc2s1,32.3 nM
4,COCCN(CCOC)Cc1cc2cc(S(N)(=O)=O)oc2s1,2.6 nM
5,COCCOCCN(CCOC)Cc1cc2cc(S(N)(=O)=O)oc2s1,3.6 nM
6,NS(=O)(=O)c1cc2cc(CN3CCOCC3)sc2o1,1.24 nM
7,CC(C)CNCc1cc2cc(S(N)(=O)=O)oc2s1,7.4 nM

# Organism: Bos taurus
# Experiment: not given
# Conditions: not given
row,Structure (SMILES),Pigment binding
1,NS(=O)(=O)c1cc2cc(CNCCF)sc2o1,60%
2,NS(=O)(=O)c1cc2cc(CNCc3ccccn3)sc2o1,69%
3,COCCOCCN(CCOC)Cc1cc2cc(S(N)(=O)=O)oc2s1,21%
4,COCCCNCc1cc2cc(S(N)(=O)=O)oc2s1,78%

# Test system: not listed separately
# Experiment: physchem
# Conditions: water
# Description: Solubility was evaluated in water at 25 degree Centigrade
row,Structure (SMILES),solubility
1,NS(=O)(=O)c1cc2cc(CNCc3ccccn3)sc2o1,20.4 mg/mL
2,CNCc1cc2cc(S(N)(=O)=O)oc2s1,> 51 mg/mL
3,COCCN(CCOC)Cc1cc2cc(S(N)(=O)=O)oc2s1,> 30 mg/mL
4,NS(=O)(=O)c1cc2cc(CN3CCOCC3)sc2o1,> 4.7 mg/mL
5,CC(C)CNCc1cc2cc(S(N)(=O)=O)oc2s1,15.3 mg/mL
6,COCCCNCc1cc2cc(S(N)(=O)=O)oc2s1,> 34 mg/mL
7,NS(=O)(=O)c1cc2cc(CNCCCCO)sc2o1,> 47 mg/mL

# Results, then the compound that gave them:
row,solubility,Structure (SMILES)
1,> 32 mg/mL,NS(=O)(=O)c1cc2cc(CNCCF)sc2o1
2,40.8 mg/mL,CCOCCNCc1cc2cc(S(N)(=O)=O)oc2s1
3,> 27 mg/mL,COCCNCc1cc2cc(S(N)(=O)=O)oc2s1
4,> 22.5 mg/mL,CCCNCc1cc2cc(S(N)(=O)=O)oc2s1

# Test system: not listed separately
# Experiment: physchem
# Conditions: 30% ethanol
row,Structure (SMILES),pKa
1,NS(=O)(=O)c1cc2cc(CNCc3ccccn3)sc2o1,9.08
2,CNCc1cc2cc(S(N)(=O)=O)oc2s1,9.25
3,COCCN(CCOC)Cc1cc2cc(S(N)(=O)=O)oc2s1,8.95
4,COCCOCCN(CCOC)Cc1cc2cc(S(N)(=O)=O)oc2s1,8.85
5,NS(=O)(=O)c1cc2cc(CN3CCOCC3)sc2o1,9.2
6,CC(C)CNCc1cc2cc(S(N)(=O)=O)oc2s1,9.1
7,COCCCNCc1cc2cc(S(N)(=O)=O)oc2s1,9
8,NS(=O)(=O)c1cc2cc(CNCCCCO)sc2o1,9.16

# Continued, values first:
row,pKa,Structure (SMILES)
1,9,NS(=O)(=O)c1cc2cc(CNCCF)sc2o1
2,8.9,CCOCCNCc1cc2cc(S(N)(=O)=O)oc2s1
3,9.05,COCCNCc1cc2cc(S(N)(=O)=O)oc2s1
4,9.4,CCCNCc1cc2cc(S(N)(=O)=O)oc2s1

# Test system: not listed separately
# Experiment: physchem
# Conditions: water
# Remark: another data set of the same source
row,Structure (SMILES),pKa
1,NS(=O)(=O)c1cc2cc(CNCc3ccccn3)sc2o1,7.02
2,CNCc1cc2cc(S(N)(=O)=O)oc2s1,7.85
3,COCCN(CCOC)Cc1cc2cc(S(N)(=O)=O)oc2s1,5.57
4,COCCOCCN(CCOC)Cc1cc2cc(S(N)(=O)=O)oc2s1,5.55
5,CC(C)CNCc1cc2cc(S(N)(=O)=O)oc2s1,7.55
6,COCCCNCc1cc2cc(S(N)(=O)=O)oc2s1,7.25
7,NS(=O)(=O)c1cc2cc(CNCCCCO)sc2o1,7.65

# Further lines, results first:
row,pKa,Structure (SMILES)
1,6.55,NS(=O)(=O)c1cc2cc(CNCCF)sc2o1
2,7.85,CCCNCc1cc2cc(S(N)(=O)=O)oc2s1
